Among the data in PubChem BioAssay (NCI) are TGI values, retold here.

What all share (assay): NCI anticancer screen, dose series, 48 h
Test [1] deals with 786-0 renal.
Test [2] has as its system A549 NSCLC.
The test system of test [3] is CCRF-CEM leukemia.
Test [4] concerns COLO 205 colon.
Test [5] concerns HOP-62 NSCLC.
Test [6] relates to MDA-N.
Test [7] has as its system MOLT-4 leukemia.
For test [8], the system named is NCI-H23 lung.
Test [9] has as its system OVCAR-5 ovarian.
Test [10] relates to PC-3 prostate.
Test [11] has as its system SN12C renal.
Test [12] relates to SNB-75 CNS.
Test [13] concerns UACC-257 melanoma.
Test [14] deals with UACC-62 melanoma.
Test [15] has as its system HCC-2998 colon.

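In this assay, cells in 96-well plates receive the compound at five concentrations for 48 hours. Endpoints are linearly interpolated between the surrounding concentrations. TGI marks complete inhibition of growth.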

As for `CCC(=O)N(c1ccccc1)C(C)CN1CCC(O)(c2ccccc2)CC1` (stereo not given), the TGI in test [1], in test [2], in test [3], in test [4], in test [5] and in [6] was > 100 µM in each case. In addition, the TGI in test [7], in test [8], in test [9], in test [10], in [11] and in test [12] was > 100 µM each time. Moreover, the TGI in [13] and in [14] was > 100 µM throughout.
With `COc1ccccc1NC(=O)C(C#N)=C(SC)SC`, the TGI in [1], in [2], in [3], in test [4], in [15] and in test [5] was > 100 µM each time. Further, the TGI in test [6], in [7], in test [8], in [9], in [10] and in test [11] was > 100 µM throughout. In addition, the TGI in test [13] and in test [14] was > 100 µM each time.
On to `CC(C)=CCC/C(C)=C/Cc1cc(/C=C/c2cc(O)c(CC=C(C)C)c(O)c2)cc(O)c1O`, for which the TGI turned out to be 17 µM in test [1]; 17.5 µM in test [2]; 33.4 µM in test [4]; 5.86 µM in test [15]; 24.4 µM in test [5]; 12.1 µM in [6]. For the same compound, the TGI in [7] was 11.8 µM; in [8] it was 11.2 µM; in [9], 15.4 µM; in test [10], 11.9 µM; in [11] it was 3.95 µM; in test [12] it was 7.57 µM. Also, the TGI in [13] is 5.2 µM; in test [14] it was 9.88 µM.
Take `COc1ccc(NC(=O)C2=C(SC)C(C#N)C(=O)N=C2N)cc1` (stereo not given): the TGI in test [1], in [2], in test [3], in test [4], in test [15] and in test [5] was > 100 µM each time. Besides, the TGI in [6], in test [7], in [8], in test [9], in test [10] and in [11] was > 100 µM in each case. The TGI in test [13] and in test [14] was > 100 µM each time.
On to `CC(=O)c1c2c(cc3c1CC1(Cc4cc5c(cc4C1)CCC5)C3)CCC2`, for which the TGI in test [1], in [2], in test [3], in test [15], in test [5] and in test [6] was > 100 µM each time. For the same compound, the TGI in test [7], in [8], in [9], in test [10], in test [12] and in [13] was > 100 µM throughout.
On to `CC1CCCc2c(-c3ccc(Cl)cc3)nc(N)c(C#N)c21` (stereo not given), for which the TGI in [1] was > 100 µM; in test [3], > 100 µM; in test [4] it was 48.3 µM; in test [5] it was 63 µM; in test [6] it was 53.4 µM; in test [7], 69.8 µM. For the same compound, the TGI was 99.4 µM in test [8]; > 100 µM in test [9]; 82 µM in [10]; > 100 µM in test [11]; 50.6 µM in test [12]; 61.5 µM in test [13]. In [14], this compound showed a TGI of 40.2 µM.
For the compound `CC(=NNC(=S)Nc1ccccc1C)c1cccc(C(C)=NNC(=S)Nc2ccccc2C)n1`, the TGI in [1], in test [2], in [3], in test [4], in test [15] and in test [5] was > 100 µM each time. Besides, the TGI in [6], in test [7], in test [8], in test [9], in [10] and in test [11] was > 100 µM each time. The TGI in test [13] and in [14] was > 100 µM in each case.
As to `CCOP(=O)(CS(C)=O)O[C@@H]1C[C@H](C)CC[C@H]1C(C)C` (stereo not given in full), the TGI stood at 6.35 µM in test [1]; 17.7 µM in test [2]; 11.5 µM in test [3]; 19.8 µM in test [4]; 21.4 µM in [5]; 8.97 µM in [6]. The TGI in test [7] is > 100 µM; in [8] it was 17.6 µM; in test [9] it was 15.2 µM; in test [10], 19.7 µM; in test [11] it was 6.12 µM; in [12], > 27.5 µM. The TGI in test [13] was determined as 18.7 µM; in test [14], 7.08 µM.
`NN/C(=N\S(=O)(=O)c1cc(Cl)c(Oc2ccc([N+](=O)[O-])cc2Cl)c(Cl)c1)Nc1ccc(Cl)cc1`: the TGI in test [1] was 36.8 µM; in [2] it was 41.8 µM; in test [3], 37.5 µM; in test [4], 29 µM; in test [5], 41 µM; in [6] it was 33 µM. Moreover, the TGI in test [7] came to 85.8 µM; in test [8] it was 31.4 µM; in test [9], 55 µM; in test [10], 81.6 µM; in [11] it was 33.2 µM; in test [12], 56.3 µM. Also, the results for the TGI in test [13] and in [14] were 34.6 µM and 28.8 µM, respectively.
As to `CCOC(=O)CNC(=O)C(CSC(=O)N(O)c1ccc(Br)cc1)NC(=O)CCC(N)C(=O)OCC` (stereo not given), the TGI in test [1], in test [2], in [3], in test [4], in test [15] and in test [5] was > 50 µM each time. Further, the TGI in test [6], in [7], in test [8], in [9], in test [10] and in [11] was > 50 µM in each case. Moreover, the TGI in [13] and in test [14] was > 50 µM throughout.
For `O=c1cc(-c2ccc(O)c(O)c2)oc2cc(OC3OC(CO)C(O)C(O)C3O)cc(O)c12` (stereo not given), the TGI in test [1], in [2], in test [4], in [15], in test [5] and in [6] was > 100 µM in each case. Also, the TGI in test [7], in test [8], in test [9], in test [10], in test [11] and in [12] was > 100 µM in each case. The TGI in test [13] and in test [14] was > 100 µM throughout.
Take `Cc1ccc2c(ccc3c[n+]4ccccc4c(C)c32)c1`: the TGI in test [1] was 19.1 µM; in [2], 40.9 µM; in test [3], > 100 µM; in test [4], 3.84 µM; in test [15], 17.9 µM; in test [5], 11.3 µM. The TGI in test [6] is > 100 µM; in test [7] it was > 100 µM; in [8] it was 10.9 µM; in test [9] it was 65 µM; in test [10], 15.9 µM; in test [11], 3.46 µM. Moreover, the TGI in test [13] is 5.59 µM.
For `O=C(O)CCC(=O)Nc1ccc2c(c1)S(=O)(=O)N(CC(=O)O)C2=O`, the TGI in [1], in [2], in test [3], in test [4], in test [15] and in test [5] was > 100 µM in each case. Also, the TGI in test [6], in test [7], in test [8], in test [9], in test [10] and in [11] was > 100 µM throughout. The TGI in [13] and in [14] was > 100 µM each time.
Turning to `CN(C)c1ccc(C(C#N)N2CCCN(C(C#N)c3ccc(N(C)C)cc3)C2c2ccc(N(C)C)cc2)cc1` (stereo not given), the TGI in test [1], in [2], in [3], in [4], in test [5] and in test [6] was > 100 µM throughout. The TGI in test [7], in test [8], in [9], in test [10], in test [11] and in test [12] was > 100 µM throughout. For the same compound, the TGI in test [13] and in [14] was > 100 µM throughout.
On to `CC(C#N)Nc1ccc(Oc2ccc(C(C)(C)c3ccc(Oc4ccc(NC(C)C#N)cc4)cc3)cc2)cc1` (stereo not given), for which the TGI in [1], in test [2], in test [4], in test [15], in [6] and in [7] was > 100 µM each time. Besides, the TGI in [8], in test [9], in [10], in test [11], in test [12] and in test [13] was > 100 µM in each case. Moreover, the TGI in [14] was > 100 µM.
